Test results taken from patent publication US12083227B2, “Solid pharmaceutical formulations for treating endometriosis, uterine fibroids, polycystic ovary syndrome or adenomyosis” (priority 2017, dated 2024).

Key:
[1] = lactation study in rats (elagolix in diet through gestation and lactation); format: in vivo, rat; conditions: dams 400 mg/kg daily in diet
Procedure: Pregnant rats were given diet containing elagolix throughout the gestation and lactation periods to achieve a daily elagolix dose of 400 mg/kg. During nursing the dams and litters were divided into restricted feeding and non-restricted groups to determine whether elagolix was secreted in the mother's milk. […] In pups of the non-restricted feeding group, elagolix plasma concentrations were measurable and approximately 1% of the mother's plasma concentrations.

women with endometriosis = test: Phase 3 studies EM-I and EM-II with extension studies EM-III and EM-IV (pooled efficacy, pharmacodynamics, safety); format: in vivo, human; conditions: for Depressed Mood, depression, depressive symptoms and or tearfulness: Placebo 17 (2.3); for Mood altered, mood swings: Placebo 25 (3.4); for Completed Suicide: EM-1 and EM-2; for patients with a Z-score below the normal lower bound of −2.0: following 12 months of treatment
From the text: Each placebo-controlled study assessed the reduction in endometriosis-associated pain over 6 months of treatment. More than 75 percent of women who completed Study EM-I and EM-II enrolled in the extension studies for an additional 6 month treatment period. Subjects were followed for up to 12 months post-treatment. Women in these studies also provided a daily self-assessment of their endometriosis pain using the Numeric Rating Scale (NRS), on a scale ranging from 0 (no pain) to 10 (worst pain ever). […] The effects of elagolix on menstrual bleeding were evaluated for up to 12 months using an electronic daily diary where subjects classified their flow of menstrual bleeding (if present in the last 24 hours) as spotting, light, medium, or heavy. […] The population age range was 18-49 years old. Women who completed six months of treatment and met eligibility criteria continued treatment in two blinded six-month extension studies, for a total treatment duration of up to 12 months. In the placebo-controlled and extension clinical studies, BMD was measured by DXA. Changes observed in BMD at other anatomical sites (femoral neck, total hip) were generally smaller than lumbar spine.

[2] = test system: endometriosis with associated pain in premenopausal women; test: Study EM-I (placebo-controlled) and its extension; format: in vivo, human; conditions: Month 6 and Month 12
From the text: Each placebo-controlled study assessed the reduction in endometriosis-associated pain over 6 months of treatment. More than 75 percent of women who completed Study EM-I and EM-II enrolled in the extension studies for an additional 6 month treatment period. Subjects were followed for up to 12 months post-treatment. The co-primary efficacy endpoints were the proportion of responders for dysmenorrhea and pelvic pain not related to menses (also known as non-menstrual pelvic pain [NMPP]) at Month 3 compared to placebo. The primary analysis independently evaluated these endpoints using a daily diary that asked patients to assess their pain and its impact on their daily activities, over the previous 24 hours. […] Women were defined as responders if they experienced clinically meaningful reduction in dysmenorrhea and/or NMPP with no increased analgesic use for endometriosis associated pain. Dyspareunia was evaluated as a secondary endpoint using the Daily Endometriosis Pain Impact Scale. Endometrial biopsies were performed in subjects in Study EM-I and its extension at Month 6 and Month 12.

tumors in rat = test: 2-year carcinogenicity study in rats; format: in vivo
From the text: The rat tumors were identified as being species-specific and of negligible relevance to humans. This conclusion is based on a follow-on thyroid and hepatic effects-related investigative study performed to document the possibility that thyroid and liver tumors may be specific to rat and occurred via induction of hepatic drug metabolizing enzymes at the high dose.

[3] = test system: fatigue in women with moderate to severe endometriosis-related pain; test: Phase III study of fatigue (PROMIS Fatigue SF-6a) in endometriosis pain; format: in vivo, human
Procedure: A Phase III study was conducted to assess the effects of elagolix for clinically meaningful reductions in pain and other symptoms. Data provided examined the impact of elagolix on fatigue in women with moderate to severe endometriosis-related pain. […] Fatigue was assessed using the Patient Reported Outcome Measurement Information System (PROMIS®), Fatigue Short Form (SF) 6a. Six items assessed a range of self-reported symptoms from mild, subjective feelings of tiredness to overwhelming, sustained sense of exhaustion that likely decreases one's ability to execute daily activities and function normally. The domain was divided into the experience of fatigue (frequency, duration and intensity) and impact of fatigue on physical, mental and social activities. All items assessed fatigue over the previous seven days. Responses to each question was filed on a 5-item Likert scale: 1—“Not at all”; 2—“A little bit”; 3—“Somewhat”; 4—“Quite a bit”; and 5—“Very much.” The questionnaire was administered at baseline and months 1, 3, and 6. Lower scores indicated less fatigue. Post-hoc, Fatigue SF-6a raw scores were converted to T-scores. The T-score rescales […] the raw score into a standardized score such that the general population has a mean of 50 and a standard deviation (SD) of 10. Analysis: […] ANCOVA controlled for treatment as main effect. Baseline Fatigue SF-6a T-score included as a covariate.

[4] = test system: fertility and reproductive organs of rats; test: fertility study and repeat-dose study in rats; format: in vivo, rat
From the text: (§1) Based on pharmacologic actions of elagolix in humans a reversible effect on fertility may be expected in women.

[5] = drug interaction studies: elagolix in the presence of co-administered drug; format: in vivo, human; conditions: for AUC Ratio (co-administration vs. elagolix alone) / Cmax Ratio (co-administration vs. elagolix alone): elagolix 150 mg single dose
Procedure: Drug interaction studies were performed with elagolix and other drugs that are likely to be co-administered and with drugs commonly used as probes for pharmacokinetic interactions.

[6] = test system: reproductive organs of monkeys; test: repeat-dose study in monkeys; format: in vivo, monkey; conditions: repeat-dose, 75, 150, 300 and 600 mg/kg/day, all doses
From the text: as §1

tumors in mouse = test: 2-year carcinogenicity study in mice; format: in vivo; conditions: any dose
[7] = Ketoconazole 400 mg once daily, N 11
[8] = Rifampin 600 mg single dose, N 12

SMILES: COc1cccc(-c2c(C)n(Cc3c(F)cccc3C(F)(F)F)c(=O)n(C[C@H](NCCCC(=O)O)c3ccccc3)c2=O)c1F [elagolix, 4-((R)-2-[5-(2-fluoro-3-methoxy-phenyl)-3-(2-fluoro-6-trifluoromethyl-benzyl)-4-methyl-2,6-dioxo-3,6-dihydro-2H-pyrimidin-1-yl]-1-phenyl-ethylamino)-butyric acid]
- plasma concentrations in pups relative to the mother's plasma concentrations ([1]; rat pups of non-restricted feeding group): approximately 1%
- plasma concentrations in pups ([1]; rat pups of restricted feeding litters, post natal day 10 and 20): not measurable
- Suicidal ideation (women with endometriosis; 150 mg Once Daily (N = 475)): 1 (0.2) N (%)
- Depressed Mood, depression, depressive symptoms and or tearfulness (women with endometriosis; 150 mg Once Daily (N = 475)): 13 (2.7) N (%)
- Mood altered, mood swings (women with endometriosis; 150 mg Once Daily (N = 475)): 25 (5.7) N (%)
- Numeric Rating Scale (NRS) scores of endometriosis pain (women with endometriosis; 150 mg QD and 200 mg BID vs placebo at Month 3 and Month 6, p<0.001): significant reduction
- percentage of days per month of the opioid or naproxen rescue medication use (women with endometriosis; 200 mg BID compared to placebo): significant reduction
- Suicidal ideation (women with endometriosis; 200 mg Twice Daily (N = 477)): 1 (0.2) N (%)
- Depressed Mood, depression, depressive symptoms and or tearfulness (women with endometriosis; 200 mg Twice Daily (N = 477)): 29 (6.1) N (%)
- Mood altered, mood swings (women with endometriosis; 200 mg Twice Daily (N = 477)): 25 (5.2) N (%)
- Completed Suicide (women with endometriosis; 150 mg Once Daily (N = 475)): 1 (0.2) N (%)
- Completed Suicide (women with endometriosis; 200 mg Twice Daily (N = 477)): 0 N (%)
- resumption of menses after stopping, % of women (women with endometriosis; after 6 months of 150 mg once daily, within 1 month): 59%
- resumption of menses after stopping, % of women (women with endometriosis; after 6 months of 150 mg once daily, within 2 months): 87%
- resumption of menses after stopping, % of women (women with endometriosis; after 6 months of 150 mg once daily, within 6 months): 95%
- resumption of menses after stopping, % of women (women with endometriosis; after 6 months of 200 mg twice daily, within 1 month): 60%
- resumption of menses after stopping, % of women (women with endometriosis; after 6 months of 200 mg twice daily, within 2 months): 88%
- resumption of menses after stopping, % of women (women with endometriosis; after 6 months of 200 mg twice daily, within 6 months): 97%
- resumption of menses after stopping, % of women (women with endometriosis; after 12 months of 150 mg once daily, within 1 month): 77%
- resumption of menses after stopping, % of women (women with endometriosis; after 12 months of 150 mg once daily, within 2 months): 95%
- resumption of menses after stopping, % of women (women with endometriosis; after 12 months of 150 mg once daily, within 6 months): 98%
- resumption of menses after stopping, % of women (women with endometriosis; after 12 months of 200 mg twice daily, within 1 month): 55%
- resumption of menses after stopping, % of women (women with endometriosis; after 12 months of 200 mg twice daily, within 2 months): 91%
- resumption of menses after stopping, % of women (women with endometriosis; after 12 months of 200 mg twice daily, within 6 months): 96%
- recovery of BMD at lumbar spine, total hip and femoral neck (women with endometriosis; both treatment groups, post-treatment months 6 and 12): progressive recovery of BMD
- patients with a Z-score below the normal lower bound of −2.0 (women with endometriosis; 150 mg daily dose): no patient
- patients with a Z-score below the normal lower bound of −2.0 (women with endometriosis; 200 mg BID): less than 1%
- percentage of days in which rescue opioid medication was taken (women with endometriosis; pooled analysis of two phase 3 trials, 150 QD and 200 BID vs placebo): significant reduction
- mean percent daily pill counts (rescue opioid) (women with endometriosis; pooled analysis, 200 mg BID vs placebo): significant reduction
- endometrial biopsy findings post-baseline (hyperplasia or cancer) [2]: no abnormal biopsy findings
- carcinogenicity: tumors (tumors in rat; 2-year, high dose, considered species-specific): increase in thyroid (male and female) and liver (males only) tumors
- margin of safety at the high dose (tumors in rat; both, in vivo, 2 years): 13 fold
- reduction in fatigue (PROMIS Fatigue SF-6a T-Score) ([3]; 200 mg, as early as Month 1): statistically significant reduction
- PROMIS Fatigue SF-6a T-Score relative to placebo ([3]; both doses (150 mg QD, 200 mg BID) at Months 3 and 6): Statistically significant reductions
- effect on fertility ([4]; fertility study, 50, 150, 300 mg/kg/day): no effect
- ovary findings ([4]; repeat-dose study, 600, 800 mg/kg/day): involution and a decrease in corpora lutea in ovaries
- AUC Ratio (co-administration vs. elagolix alone) [5, 7]: 2.20
- Cmax Ratio (co-administration vs. elagolix alone) [5, 7]: 1.77
- AUC Ratio (co-administration vs. elagolix alone) ([5]; Rifampin 600 mg once daily): 1.65
- Cmax Ratio (co-administration vs. elagolix alone) ([5]; Rifampin 600 mg once daily): 2.00
- AUC Ratio (co-administration vs. elagolix alone) [5, 8]: 5.58
- Cmax Ratio (co-administration vs. elagolix alone) [5, 8]: 4.37
- direction of the change in AUC of elagolix ([5]; co-administered with rifampin): ↑ elagolix
- reproductive organ findings (cervix, uterus and vagina) [6]: reversible atrophy of reproductive organs
- carcinogenicity: tumors (tumors in mouse): no increase in tumors
